According to BigSolDB 2.1:

O=C(O)CNC(=O)c1ccccc1
solubility (mole fraction)
Conditions	in 1,4-dioxane	in DMF	in THF	in chloroform	in ethanol	in methanol	in n-butanol	in n-propanol
298.15 K	0.00729	0.206	0.0142	0.00021	0.0148	0.0179	0.00776	0.00884
303.15 K	0.0084	0.213	0.0167	0.00035	0.0162	0.0197	0.00908	0.0108
308.15 K	0.0109	0.219	0.018	0.00052	0.0194	0.023	0.0106	0.0121
313.15 K	0.014	0.226	0.0209	0.0007	0.024	0.0275	0.0128	0.0151
318.15 K	0.0164	0.232	0.0228	0.00088	0.029	0.0323	0.0151	0.0174
323.15 K	0.0182	0.239	0.026	0.00102	0.0342	0.0378	0.0178	0.0201
328.15 K	0.0209	0.246	0.0291	0.0011	0.0396	0.0448	0.0205	0.0232
